How the values were obtained:
Assay in all cases: relative viability (nuclei count vs DMSO), 5 days (fraction); higher = more cells survive
Afatinib + Palbociclib = compound: CN(C)C/C=C/C(=O)Nc1cc2c(Nc3ccc(F)c(Cl)c3)ncnc2cc1O[C@H]1CCOC1 [Afatinib] + CC(=O)c1c(C)c2cnc(Nc3ccc(N4CCNCC4)cn3)nc2n(C2CCCC2)c1=O [Palbociclib] (partner 0.5 µM)
How it was run: (§1)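 Relative viability was taken as the ratio of nuclei in treated wells to nuclei in vehicle wells. Lung cancer cell lines in 1536-well plates received compounds by pin tool one day after seeding, either one drug alone or a fixed anchor-drug dose plus five library-drug doses (not always all listed) in √10 steps. Nuclei were counted on 4× images after 5 days of treatment, and values are medians of duplicate plates.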

Afatinib + Dasatinib = compound: CN(C)C/C=C/C(=O)Nc1cc2c(Nc3ccc(F)c(Cl)c3)ncnc2cc1O[C@H]1CCOC1 [Afatinib] + Cc1nc(Nc2ncc(C(=O)Nc3c(C)cccc3Cl)s2)cc(N2CCN(CCO)CC2)n1 [Dasatinib] (partner 0.075 µM)
How it was run: as §1

Afatinib + Luminespib = compound: CN(C)C/C=C/C(=O)Nc1cc2c(Nc3ccc(F)c(Cl)c3)ncnc2cc1O[C@H]1CCOC1 [Afatinib] + CCNC(=O)c1noc(-c2cc(C(C)C)c(O)cc2O)c1-c1ccc(CN2CCOCC2)cc1 [Luminespib] (partner 0.01 µM)
How it was run: as §1

Afatinib + Bortezomib = compound: CN(C)C/C=C/C(=O)Nc1cc2c(Nc3ccc(F)c(Cl)c3)ncnc2cc1O[C@H]1CCOC1 [Afatinib] + CC(C)C[C@H](NC(=O)[C@H](Cc1ccccc1)NC(=O)c1cnccn1)B(O)O [Bortezomib] (partner 0.002 µM)
How it was run: as §1

| Cell Line | relative viability (Afatinib + Palbociclib; first compound 0.005 µM) | relative viability (Afatinib + Palbociclib; first compound 0.01581 µM) | relative viability (Afatinib + Palbociclib; first compound 0.05 µM) | relative viability (Afatinib + Palbociclib; first compound 0.1581 µM) | relative viability (Afatinib + Palbociclib; first compound 0.5 µM) | relative viability (Afatinib + Dasatinib; first compound 0.005 µM) | relative viability (Afatinib + Dasatinib; first compound 0.01581 µM) | relative viability (Afatinib + Dasatinib; first compound 0.05 µM) | relative viability (Afatinib + Dasatinib; first compound 0.1581 µM) | relative viability (Afatinib + Dasatinib; first compound 0.5 µM) | relative viability (Afatinib + Luminespib; first compound 0.005 µM) | relative viability (Afatinib + Luminespib; first compound 0.01581 µM) | relative viability (Afatinib + Luminespib; first compound 0.05 µM) | relative viability (Afatinib + Luminespib; first compound 0.1581 µM) | relative viability (Afatinib + Luminespib; first compound 0.5 µM) | relative viability (Afatinib + Bortezomib; first compound 0.005 µM) | relative viability (Afatinib + Bortezomib; first compound 0.01581 µM) | relative viability (Afatinib + Bortezomib; first compound 0.05 µM) | relative viability (Afatinib + Bortezomib; first compound 0.1581 µM) | relative viability (Afatinib + Bortezomib; first compound 0.5 µM) |
| --- | --- | --- | --- | --- | --- | --- | --- | --- | --- | --- | --- | --- | --- | --- | --- | --- | --- | --- | --- | --- |
| COR-L 105 | 0.398 | 0.355 | 0.3 | 0.36 | 0.352 | 0.206 | 0.119 | 0.142 | 0.137 | 0.148 | 0.678 | 0.476 | 0.445 | 0.307 | 0.272 | 0.3 | 0.31 | 0.334 | 0.262 | 0.362 |
| LK-2 | 0.621 | 0.633 | 0.656 | 0.673 | 0.584 | 0.26 | 0.359 | 0.28 | 0.216 | 0.269 | 0.191 | 0.185 | 0.185 | 0.188 | 0.192 |  |  |  |  |  |
| NCI-H727 | 0.586 | 0.637 | 0.6 | 0.506 | 0.544 | 0.366 |  | 0.204 | 0.282 | 0.249 | 0.404 |  | 0.416 | 0.282 | 0.345 | 0.85 | 0.732 | 0.825 | 0.863 | 0.804 |
| RERF-LC-KJ | 1.05 | 1.02 | 0.984 | 0.85 | 0.825 | 0.663 | 0.662 | 0.736 | 0.61 | 0.616 | 1.19 | 1.11 | 1.19 | 1.1 | 1.08 | 1.01 | 1.16 | 0.901 | 0.818 | 0.793 |
| NCI-H2023 | 0.382 | 0.333 | 0.284 | 0.265 | 0.275 | 0.61 | 0.498 | 0.492 | 0.445 | 0.546 | 0.85 | 0.711 | 0.756 | 0.594 | 0.71 | 0.954 | 0.884 | 0.984 | 0.899 | 1.14 |
| NCI-H322M | 0.467 | 0.434 | 0.394 | 0.358 | 0.378 | 0.246 | 0.229 | 0.231 | 0.233 | 0.248 | 0.705 | 0.566 | 0.443 | 0.496 | 0.405 | 0.721 | 1.03 | 0.663 | 0.563 | 0.512 |
| NCI-H1666 | 0.656 | 0.617 | 0.645 | 0.673 | 0.688 | 0.784 | 0.772 | 0.672 | 0.672 | 0.776 | 0.973 | 0.931 | 0.796 | 0.807 | 0.808 | 0.712 | 0.758 | 0.567 |  | 0.8 |
| NCI-H1648 | 0.248 | 0.304 | 0.269 | 0.344 | 0.263 |  |  |  |  |  |  |  |  |  |  |  |  |  |  |  |
| NCI-H2087 | 0.232 | 0.185 | 0.226 | 0.253 | 0.191 | 0.992 | 0.804 | 0.825 | 0.852 | 0.715 | 0.178 | 0.163 | 0.21 | 0.167 | 0.161 | 1.02 | 0.756 | 0.867 | 0.8 | 0.795 |
| LU99A | 0.451 | 0.39 | 0.425 | 0.36 | 0.391 | 0.741 | 0.591 | 0.594 | 0.569 | 0.493 | 0.198 | 0.294 | 0.25 | 0.343 | 0.305 | 1.19 | 1.07 | 1.08 | 1.08 | 1.02 |
| HCC-366 | 0.469 | 0.361 | 0.443 | 0.37 | 0.456 | 0.697 | 0.666 | 0.605 | 0.62 | 0.723 |  |  |  |  |  | 1.1 | 1.07 | 1.08 | 0.972 | 1.06 |
| EKVX | 0.317 | 0.265 | 0.188 | 0.147 | 0.141 | 0.334 | 0.429 | 0.339 | 0.319 | 0.231 | 0.714 | 0.858 | 0.58 | 0.191 | 0.298 | 0.811 | 0.655 | 0.468 | 0.308 | 0.199 |
| NCI-H522 | 1 | 1.05 | 1.15 | 0.881 | 0.675 | 0.877 | 0.992 | 0.712 | 0.733 | 0.692 | 1.25 | 1.19 | 0.978 | 0.923 | 1 |  |  |  |  |  |
| NCI-H1755 | 0.463 | 0.438 | 0.441 | 0.456 | 0.433 | 0.483 | 0.424 | 0.435 | 0.393 | 0.399 | 0.287 | 0.367 | 0.587 | 0.408 | 0.49 | 0.995 | 0.925 | 0.927 | 0.934 | 1.03 |
| NCI-H647 | 0.37 | 0.335 | 0.385 | 0.368 | 0.312 | 0.24 | 0.141 | 0.201 | 0.192 | 0.172 | 0.169 | 0.26 | 0.12 | 0.183 | 0.158 | 0.921 | 0.808 | 1.08 | 1.11 | 1 |
| LC-2-ad | 0.494 | 0.489 | 0.483 | 0.447 | 0.477 | 0.735 | 0.389 | 0.527 | 0.509 | 0.477 | 1.01 | 1.05 | 1.13 | 1.08 | 1.05 | 1.01 | 1.03 | 1.06 | 0.991 | 1.19 |
| NCI-H1793 | 0.258 | 0.3 | 0.273 | 0.218 | 0.21 | 0.33 | 0.341 | 0.343 | 0.361 | 0.272 | 0.19 | 0.215 | 0.238 | 0.168 | 0.173 |  |  |  |  |  |
| HCC-827 | 0.158 | 0.139 | 0.164 | 0.171 | 0.136 | 0.14 | 0.135 | 0.16 | 0.175 | 0.15 | 0.228 | 0.133 | 0.227 | 0.169 | 0.148 | 0.704 | 0.25 | 0.299 | 0.316 | 0.342 |

From the supplement of paper PMC10307832
